Positions of bridges follow the written chain, without caps; N, C: chain ends. Non-standard residues stand in square brackets, D forms with d. Residues, ends and D or L forms follow the SMILES beside them.
Assays:
[1] = tested on: antigen specific antibody recall response; test: Cynomolgus monkeys immunized with scFv antigen; assay type: in vivo; details: single dose 50 mg/kg i.v.
Method: Cynomolgus monkeys were immunized with antigen that is a single chain Fv (scFv) protein. Each animal previously received 3 i.v. injections of the antigen and all developed high serum titers. Five animals were randomly divided into 2 groups. Two animals served as PBS treated controls and 3 were treated i.v. with 50 mg/kg CRD-Leu4Ile11Cys13 peptide 3(3-12)[MCP-1]. Thirty minutes following CRD-Leu4Ile11Cys13 peptide 3(3-12)[MCP-1] treatment all animals were challenged i.v. with 3.5 mg/kg antigen. In addition, animals were challenged intradermal with each of the following in a volume of 50 μl:PBS; 50 μg antigen; 5 μg antigen; 0.5 μg antigen; 500 ng MCP-1; or 50 ng LPS. Serum was collected at 10 minutes, 30 minutes, 60 minutes, 4 hours, and 24 hours. Animals were sacrificed 24 hours after CRD-Leu4Ile11Cys13 peptide 3(3-12)[MCP-1] injection and complete necropsy performed and tissues fixed for histopathology. Fixed and frozen skin samples were harvested for histopathology and immunohistochemistry. […] Blood was also analyzed pre- and post-CRD-Leu4Ile11Cys13 peptide 3(3-12)[MCP-1] injection for hematology parameters and serum chemistry. Serum levels were evaluated by an LC-MS method (limit of quantitation=1 μg/ml) pre-treatment and then at 10 minutes, 30 minutes, 60 minutes, 4 hours and 20-24 hours after injection. […]

[2] = tested on: MCP-1 co-mitogenic effect, cultured smooth muscle cells; test: Co-mitogenic effect of MCP-1 on cultured smooth muscle cells; assay type: cell-based; details: 100 μM; MCP-1 with 0.5% fetal calf serum
Method: Many chemokines are co-mitogenic with low concentrations of FCS, e.g., 50 ng/ml MCP-1+0.5% FCS is a mitogen for smooth muscle cells. Assays well known to the art for determination of DNA synthesis induced by any known chemokine plus a low concentration (<5%) of FCS on suitable cells (e.g., smooth muscle cells) in the presence and absence of the agent may be employed to screen agents for such inhibitory activity. See Porreca et al., J. Vasc. Res., 34, 58 (1997), the disclosure of which is incorporated by reference herein.
Peptide 3(1-12)[MCP-1] […] MCP-1 has been reported to be a weak co-mitogen with 0.5% fetal calf serum for cultured smooth muscle cells. […] (SEQ ID NO:1) is an MCP-1 receptor antagonist. The observation that peptide 3(1-12)[MCP-1]

HIV (IIIb) = test: HIV infectivity of Jurkat T-cells, p24gag immunofluorescence; assay type: cell-based; details: 100 μM peptide (SDF1α 100 ng/ml), about 48 hours after infection
Method: (a) HIV (IIIb) replication in cultures of Jurkat T-cells was estimated by measuring the supernatant reverse transcriptase activity two weeks after infection. Peptide 2 and peptide 3 were at 100 μM final concentration and SDF-1α was added at 100 ng/ml final concentration 1 hour prior to exposure to virus. Values are mean±SEM from 12 wells, expressed as the percentage of the reverse transcriptase activity in the supernatant from the control wells. The experiment shown is typical of six separate experiments. (b) HIV (IIIb) infectivity of Jurkat T-cells was estimated by staining cells treated identically to those in (a) for p24^gag expression. Values are mean±S.D. percentage of cells stained for p24gag averaged from 12 fields of view from each of two separate wells. (c) HIV (MN) infectivity of THP-1 cells measured as in (b). […] Both fields of view contain 40-50 cells (assessed by Hoeschst 33345 staining viewed under UV illumination conditions).
Jurkat cells following HIV infection were attached to 8-well chamber slides (Becton-Dickinson) by spinning the slides using a plate rotor in a Labofuge centrifuge (Haeraeus) at 3,000×g for 5 minutes. […] A threshold was then applied to each image which was the lowest threshold that detected <1% of the pixels of an image of uninfected cells stained under identical conditions. The number of objects exceeding this threshold in each field of view were counted. […]

Row | Compound | antigen specific antibody response in splenocyte, lymph node and PBL recall responses [1] | effect on the co-mitogenic effect of MCP-1 for cultured smooth muscle cells [2] | inhibition of viral infectivity, p24gag staining, Jurkat T-cells (HIV (IIIb))
1 | CC[C@@H](C)[C@H]1NC(=O)[C@@H](CCC(N)=O)NC(=O)[C@H](N)CSSC[C@H](C(N)=O)NC(=O)[C@@H](CC(C)C)NC(=O)[C@@H](CC(=O)O)NC(=O)[C@H]2CCCN2C(=O)[C@@H](CCCCN)NC(=O)[C@@H](CCC(N)=O)NC(=O)[C@@H](CCCCN)NC(=O)[C@@H](Cc2c[nH]c3ccccc23)NC1=O (H-[dC][dQ][dI][dW][dK][dQ][dK][dP][dD][dL][dC]-NH2; disulfide 1-11; N-terminus assumed) | reduced antigen specific antibody response |  | 
2 | EICADPKQKWVQ [peptide 3(1-12)[MCP-1]] |  | completely abolished | ineffective
